Measurements published in the NIST ThermoML archive (doi:10.1016/j.jct.2008.06.011).
Where “and” joins values, the source holds several entries; their conditions need not be identical. Equal entries are not always repeated.

Conditions: Crystal, Calculated from knudsen effusion weight loss

NNC(=O)c1cccs1 [2-thiophenecarboxylic acid hydrazide]
Conditions	vapor or sublimation pressure
339.13 K	0.000108 kPa and 0.000109 kPa
341.18 K	0.000134 kPa and 0.000135 kPa
343.2 K	0.000171 kPa and 0.000169 kPa and 0.000164 kPa
345.13 K	0.000218 kPa and 0.000213 kPa and 0.000219 kPa
347.18 K	0.000273 kPa and 0.000274 kPa and 0.000262 kPa
349.19 K	0.00033 kPa and 0.00034 kPa and 0.000323 kPa
351.13 K	0.000414 kPa and 0.000423 kPa and 0.000404 kPa
353.18 K	0.000519 kPa and 0.00052 kPa and 0.000497 kPa
355.19 K	0.000637 kPa and 0.000628 kPa and 0.000622 kPa
357.12 K	0.000786 kPa and 0.000787 kPa and 0.000763 kPa
359.15 K	0.000977 kPa and 0.000971 kPa and 0.000942 kPa
361.18 K	0.001194 kPa and 0.001173 kPa and 0.001154 kPa

NNC(=O)c1ccco1 [2-furoic acid hydrazide]
Conditions	vapor or sublimation pressure
309.15 K	0.0001487 kPa and 0.0001459 kPa and 0.0001436 kPa
311.15 K	0.0001928 kPa and 0.0001919 kPa and 0.0001872 kPa
313.14 K	0.0002436 kPa and 0.0002335 kPa and 0.0002348 kPa
315.14 K	0.0003144 kPa and 0.0003082 kPa and 0.0003114 kPa
317.13 K	0.0003943 kPa and 0.0003803 kPa and 0.0003744 kPa
319.15 K	0.0005068 kPa and 0.0004916 kPa and 0.0004795 kPa
321.14 K	0.0006091 kPa and 0.0006111 kPa and 0.0005851 kPa
323.16 K	0.0007862 kPa and 0.0007814 kPa and 0.0007812 kPa
325.15 K	0.0009687 kPa and 0.0009579 kPa and 0.0009504 kPa
